Measurements reported in patent EP2975030B1, “DIHYDROPYRIDAZINE-3,5-DIONE DERIVATIVE” (Chugai Seiyaku Kabushiki Kaisha, priority 2013, dated 2014).

System: rat small-intestinal brush border membrane vesicles
Assay: Inhibitory effect on 33PO4 uptake into rat small-intestinal brush border membrane vesicles (rapid filtration method)
Type: biochemical, Wistar female rat
Conditions: 1 µM test compound; 33PO4 uptake into rat small-intestinal BBMVs, 60 seconds
Outline: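 33PO4 uptake into rat small-intestinal brush border membrane vesicles measured by rapid filtration. Reactions were stopped with ice-cold buffer (110 mM NaCl, 1 mM KH2PO4, 10 mM HEPES pH 7.5), filtered and washed. Vesicle-associated radioactivity was counted by liquid scintillation.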

Structure (SMILES)	Rate of uptake inhibition (%) (1 µM)
CN1N(Cc2ccc(OCCN3CC(F)(F)C3)c(F)c2F)C(=O)C(C(=O)Nc2ccc(C(F)(F)F)cc2-c2cc(C(F)(F)F)ncn2)=C(O)C12CCCC2 [Example 369]	43%
C[C@]12CCCN1N(Cc1c(F)cc(C#CC3(O)CCCC3)cc1F)C(=O)C(C(=O)Nc1ccc(C(F)(F)F)cc1-c1ccc(C(F)(F)F)nc1)=C2O [Example 130]	72%
CN1N(Cc2ccc(OCCOCCNC(=O)[C@@H](O)[C@H](O)[C@@H](O)[C@@H](O)CO)c(F)c2F)C(=O)C(C(=O)Nc2ccc(C(F)(F)F)cc2-c2cc(C(F)(F)F)ncn2)=C(O)C12CCCC2 [Example 427, 7-[[2,3-Difluoro-4-[2-[2-[[(2S,3R,4S,5S)-2,3,4,5,6-pentahydroxyhexanoyl]amino]ethoxy]ethoxy]phenyl]methyl]-10-hydroxy-6-methyl-8-oxoN-[4-(trifluoromethyl)-2-[6-(trifluoromethyl)pyrimidin-4-yl]phenyl]-6,7-diazaspiro[4.5]dec-9-ene-9-carboxamide]	12%
COC(=O)[C@@H]1CCCN1CCOc1ccc(CN2C(=O)C(C(=O)Nc3ccc(C(F)(F)F)cc3-c3cc(C(F)(F)F)ncn3)=C(O)C3(CCC3)N2C)c(F)c1F [Example 355]	36%
Cc1c(C#N)ncnc1-c1cc(C(F)(F)F)ccc1NC(=O)C1=C(O)C2(CCC2)N(C)N(Cc2ccc(OCCN3CCOCC3)c(F)c2F)C1=O [Example 283]	45%
CN1N(Cc2ccc(OCCN3CCOCC3)c(F)c2F)C(=O)C(C(=O)Nc2ccc(C(F)(F)F)cc2-c2ccc(C(F)(F)F)nc2)=C(O)C12CCC2 [Example 282]	55%
CC(C)[C@@H]1C(O)=C(C(=O)Nc2ccc(Cl)cc2-c2ccc(C(F)(F)F)nc2)C(=O)N(Cc2cccc(F)c2F)N1C [Example 251]	43%
C#Cc1ccc(CN2C(=O)C(C(=O)Nc3ccc(C(F)(F)F)cc3-c3cc(C(F)(F)F)ncn3)=C(O)[C@@]3(C)CCCN23)c(F)c1F [Example 126, (4aR)-1-[(4-Ethynyl-2,3-difluorophenyl)methyl]-4-hydroxy-4a-methyl-2-oxo-N-[4-(trifluoromethyl)-2-[6-(trifluoromethyl)pyrimidin-4-yl]phenyl]-6,7-dihydro-5H-pyrrolo[1.2-b]pyridazine-3-carboxamide]	71%
C[C@]12CCCN1N(Cc1cccc(F)c1F)C(=O)C(C(=O)Nc1ccc(C(F)(F)F)cc1-c1cc(Cl)cnc1Cl)=C2O [Example 84]	91%
Cc1nc(NC(=O)C2=C(O)[C@H](C(C)(C)C)N(C)N(Cc3cccc(F)c3F)C2=O)ccc1Br [Example 241]	86%
Cc1cc(NC(=O)C2=C(O)[C@]3(C)CCCN3N(Cc3cccc(F)c3)C2=O)c(C(F)(F)F)o1 [Example 8]	37%
CN(C)S(=O)(=O)c1ccc(-c2cc(C(F)(F)F)ccc2NC(=O)C2=C(O)[C@@]3(C)CCCN3N(Cc3cccc(F)c3F)C2=O)s1 [Example 71]	97%
CN1N(Cc2ccc(OCCCCOCCO)c(F)c2F)C(=O)C(C(=O)Nc2ccc(C(F)(F)F)cc2-c2cc(C(F)(F)F)ncn2)=C(O)C12CCCC2 [Example 396]	38%
CN1N(Cc2ccc(OCCN3[C@@H]4COC[C@H]3C4)c(F)c2F)C(=O)C(C(=O)Nc2ccc(C(F)(F)F)cc2-c2cc(C(F)(F)F)ncn2)=C(O)C12CCCC2 [Example 380]	43%
CN1N(Cc2ccc(OCCCCOC[C@H](O)CO)c(F)c2F)C(=O)C(C(=O)Nc2ccc(C(F)(F)F)cc2-c2ccc(C(F)(F)F)nc2)=C(O)C12CCCC2 [Example 387]	23%
CN1N(Cc2ccc(OCCN3CCN(CCOCCO)CC3)c(F)c2F)C(=O)C(C(=O)Nc2ccc(C(F)(F)F)cc2-c2cc(C(F)(F)F)ncn2)=C(O)C12CCCC2 [Example 378]	35%
CN1N(Cc2ccc(OCCCOC[C@H](O)CO)c(F)c2F)C(=O)C(C(=O)Nc2ccc(C(F)(F)F)cc2-c2ccc(C(F)(F)F)nc2)=C(O)C12CCC2 [Example 383, 6-[[4-[3-[(2R)-2,3-Dihydroxypropoxy]propoxy]-2,3-difluorophenyl]methyl]-9-hydroxy-5-methyl-7-oxo-N-[4-(trifluoromethyl)-2-[6-(trifluoromethyl)pyrydin-3-yl]phenyl]-5,6-diazaspiro[3.5]non-8-ene-8-carboxamide]	126%

Structure (SMILES)	Rate of uptake inhibition (%) (1 µM)
C[C@]12CCCN1N(Cc1ccc(Cl)cc1)C(=O)C(C(=O)Nc1ccc(C(F)(F)F)cc1-c1cc(C(F)(F)F)ncn1)=C2O [Example 182]	86%
CSC1CN(CCOc2ccc(CN3C(=O)C(C(=O)Nc4ccc(C(F)(F)F)cc4-c4cc(C(F)(F)F)ncn4)=C(O)C4(CCC4)N3C)c(F)c2F)C1 [Example 357]	45%
CN1N(Cc2cccc(F)c2F)C(=O)C(C(=O)Nc2ccc(C(F)(F)F)cc2-c2ccc(C(F)(F)F)nc2)=C(O)C12CCC2 [Example 301]	79%
CN1N(Cc2ccc(OCCN3CCOCC3)c(F)c2F)C(=O)C(C(=O)Nc2ccc(Br)c(C(F)(F)F)n2)=C(O)C12CCCCC2 [Example 298]	10%
C[C@]12CCCN1N(Cc1cccc(F)c1F)C(=O)C(C(=O)Nc1ccc(C(F)(F)F)cc1-c1cnc(Cl)nc1)=C2O [Example 67]	91%
C[C@]12CCCN1N(Cc1cccc(F)c1F)C(=O)C(C(=O)Nc1ccc(Br)c(F)c1)=C2O [Example 28]	72%
COc1cc(CN2C(=O)C(C(=O)Nc3ccc(C(F)(F)F)cc3-c3ccc(C(F)(F)F)nc3)=C(O)[C@@]3(C)CCCN23)cc(OC)c1 [Example 202]	75%
CC(C)[C@H]1C(O)=C(C(=O)Nc2cc(F)c(Br)c(F)c2)C(=O)N(Cc2cccc(F)c2F)N1C [Example 254]	58%
COc1cccc(-c2cc(C(F)(F)F)ccc2NC(=O)C2=C(O)[C@@]3(C)CCCN3N(Cc3ccc(C#CCCCCO)c(F)c3F)C2=O)c1OC [Example 135]	90%
Cc1nc(NC(=O)C2=C(O)C3(CCCC3)N(C)N(Cc3cccc(F)c3F)C2=O)ccc1Br [Example 262]	43%
CN1N(Cc2ccc(OCCn3cncn3)c(F)c2F)C(=O)C(C(=O)Nc2ccc(C(F)(F)F)cc2-c2cc(C(F)(F)F)ncn2)=C(O)C12CCC2 [Example 352]	27%
COc1cccc(CN2C(=O)C(C(=O)Nc3ccc(C(F)(F)F)cc3-c3ccc(C(F)(F)F)nc3)=C(O)[C@@]3(C)CCCN23)c1OC [Example 175]	85%
CN1N(Cc2cccc(F)c2F)C(=O)C(C(=O)Nc2ccc(C(F)(F)F)nc2-c2cncc(C(F)(F)F)c2)=C(O)C1(C)C [Example 306]	58%
CN(CCOc1ccc(CN2C(=O)C(C(=O)Nc3ccc(C(F)(F)F)cc3-c3cc(C(F)(F)F)ncn3)=C(O)C3(CCCC3)N2C)c(F)c1F)C1CCOCC1 [Example 365]	34%
C[C@]12CCCN1N(Cc1cccc(F)c1F)C(=O)C(C(=O)Nc1ccc(Br)cn1)=C2O [Example 78]	71%
COc1cc(C)c(-c2cc(C(F)(F)F)ccc2NC(=O)C2=C(O)[C@@]3(C)CCCN3N(Cc3cccc(F)c3F)C2=O)cn1 [Example 80]	75%
